Measured values from patent US20240101576A1, “HETEROCYCLIC INHIBITORS OF EGFR AND/OR HER2, FOR USE IN THE TREATMENT OF CANCER” (Scorpion Therapeutics, Inc., priority 2020, published 2024).

Columns and labels:
Type in all cases: cell-based
[1] = target: T1, EGFR exon 20 ASV Ins V769_D770 (Ba/F3 cells) (Homo sapiens, UniProt P00533, INS769ASV); test: Inhibitor activity on EGFR phosphorylation (pEGFR AlphaLISA, 2 h), Ba/F3 EGFR exon 20 ASV Ins; conditions: EGFR phosphorylation, AlphaLISA, 2 hours; read-out: ASV IC50 (pEGFR)
T1 construct: expressed in transfected cells; host or cells: Ba/F3 (murine pro-B cells), retroviral transduction, puromycin selection, IL3-independent pool
T1 sequence (P00533 with tags, fused parts or gaps INS769ASV): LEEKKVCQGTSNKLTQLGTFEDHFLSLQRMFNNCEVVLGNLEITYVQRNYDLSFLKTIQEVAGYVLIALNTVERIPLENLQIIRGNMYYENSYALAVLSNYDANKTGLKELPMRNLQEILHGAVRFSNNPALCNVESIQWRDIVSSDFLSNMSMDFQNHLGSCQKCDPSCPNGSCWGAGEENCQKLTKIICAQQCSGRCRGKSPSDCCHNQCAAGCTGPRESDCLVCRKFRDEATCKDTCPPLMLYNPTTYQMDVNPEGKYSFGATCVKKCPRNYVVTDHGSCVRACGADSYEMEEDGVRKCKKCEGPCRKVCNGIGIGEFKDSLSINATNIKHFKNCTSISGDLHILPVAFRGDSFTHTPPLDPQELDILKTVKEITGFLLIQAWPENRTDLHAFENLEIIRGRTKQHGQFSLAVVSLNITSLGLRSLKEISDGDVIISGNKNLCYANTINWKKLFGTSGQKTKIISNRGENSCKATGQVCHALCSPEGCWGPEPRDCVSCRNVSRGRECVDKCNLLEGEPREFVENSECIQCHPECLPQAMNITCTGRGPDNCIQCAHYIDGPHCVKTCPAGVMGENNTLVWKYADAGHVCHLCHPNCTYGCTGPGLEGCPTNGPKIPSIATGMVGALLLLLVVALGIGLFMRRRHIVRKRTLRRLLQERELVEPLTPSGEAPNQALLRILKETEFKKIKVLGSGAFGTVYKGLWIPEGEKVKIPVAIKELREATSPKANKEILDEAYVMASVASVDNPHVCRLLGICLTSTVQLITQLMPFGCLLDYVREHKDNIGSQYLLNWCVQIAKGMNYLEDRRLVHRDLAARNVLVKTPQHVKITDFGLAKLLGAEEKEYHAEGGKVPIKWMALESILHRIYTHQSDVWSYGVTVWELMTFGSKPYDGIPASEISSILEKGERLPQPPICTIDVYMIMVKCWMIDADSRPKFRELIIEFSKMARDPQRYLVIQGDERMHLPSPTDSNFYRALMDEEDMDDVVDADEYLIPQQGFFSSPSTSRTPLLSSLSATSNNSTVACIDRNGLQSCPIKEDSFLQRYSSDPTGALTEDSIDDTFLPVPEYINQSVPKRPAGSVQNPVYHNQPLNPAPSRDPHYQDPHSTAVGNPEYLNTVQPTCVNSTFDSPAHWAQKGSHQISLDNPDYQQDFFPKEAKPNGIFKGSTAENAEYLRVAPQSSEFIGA
In short: (§1)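 After a 2-hour exposure to compound (3-fold, 10-point series from 10 mM DMSO stock), cell lysates were assayed for pEGFR by AlphaLISA. Cells were retrovirally engineered, IL3-independent Ba/F3 lines expressing each EGFR mutant at 50K/well, or CUTO14 cells at 12.5K/well, giving IC50 values.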

[2] = target: T2, EGFR exon 20 SVD Ins D770_N771 (Ba/F3 cells) (Homo sapiens, UniProt P00533, INS770SVD); test: Inhibitor activity on EGFR phosphorylation (pEGFR AlphaLISA, 2 h), Ba/F3 EGFR exon 20 SVD Ins
T2 construct: expressed in transfected cells; host or cells: Ba/F3 (murine pro-B cells), retroviral transduction, puromycin selection, IL3-independent pool
Text: Example B. Inhibitor Activity on EGFR phosphorylation (pEGFR)
EGFR mutant Ba/F3 cells were generated by transduction with retrovirus containing vectors expressing EGFR L858R, EGFR exon 19del, EGFR L858R/C797S, EGFR exon 20 NPG Ins D770_N771, EGFR exon 20 ASV Ins V769_D770, or EGFR exon 20 SVD Ins D770_N771 genes along with a puromycin selection marker. Transduced cells are selected with puromycin for 7 days and are then be transferred into culture media without Interleukin 3 (IL3). Surviving cells are confirmed to express EGFR by Western blot and maintained as a pool. CUTO14 cells were obtained from Dr. Robert C. Doebele at the University of Colorado. The IC50 date are included in Table 6 and Table 7.
1.1 Cells are harvested from flask into cell culture medium and the cell number counted.
1.2 Cells are diluted with culture medium to the desired density and 40 μL of cell suspension is added into each well of 384-well cell culture plate and the seeding density is 50K cells/well (Ba/F3) or 12.5K cells/well (CUTO14).
2 Compound Preparation and Treatment
2.1 Test compounds are dissolved to 10 mM in a DMSO stock solution. 45 μL of stock solution is transferred to a 384 polypropylene plate (pp-plate). Perform 3-fold, 10-point dilution via transferring 15 μL compound into 30 μL DMSO using a TECAN (EVO200) liquid handler.
2.2 Spin plates at room temperature at 1,000 RPM for 1 minute.
2.3 Transfer 5 nL of diluted compound from compound source plate into the cell plate.
2.4 After compound treatment for 2 hours, perform pEGFR detection by AlphaLISA for compound treatment plates as described in “Detection” section.
3 Detection by pEGFR AlphaLISA (Perkin-Elmer)
3.1 Plates are removed from incubators and equilibrated at room temperature for 10 minutes, and media was removed
3.2 10 μL of lysis buffer is added and plates shaken at 600 rpm for 1 hr.
3.3 Prepare acceptor mix just before use and dispense 5 μL of acceptor mix to all the wells. Shake 350 rpm for Ihr in the dark
3.4 Prepare donor mix under low light conditions prior to use. Dispense 5 μL of donor mix to all the wells. Mix well on the shaker, seal and wrap in aluminum foil and incubate 1.5 hrs at room temperature in the dark
3.5 Transfer 18.5 μL mixture to OptiPlate 384, and read using an Envision. The IC50 date were included in Table 6 and Table 7.

[3] = target: T3, EGFR exon 19del (Ba/F3 cells) (Homo sapiens, UniProt P00533); test: Inhibitor activity on EGFR phosphorylation (pEGFR AlphaLISA, 2 h), Ba/F3 EGFR exon 19del; conditions: read-out: Del19 IC50 (pEGFR)
T3 sequence (P00533 with tags, fused parts or gaps DEL746-750): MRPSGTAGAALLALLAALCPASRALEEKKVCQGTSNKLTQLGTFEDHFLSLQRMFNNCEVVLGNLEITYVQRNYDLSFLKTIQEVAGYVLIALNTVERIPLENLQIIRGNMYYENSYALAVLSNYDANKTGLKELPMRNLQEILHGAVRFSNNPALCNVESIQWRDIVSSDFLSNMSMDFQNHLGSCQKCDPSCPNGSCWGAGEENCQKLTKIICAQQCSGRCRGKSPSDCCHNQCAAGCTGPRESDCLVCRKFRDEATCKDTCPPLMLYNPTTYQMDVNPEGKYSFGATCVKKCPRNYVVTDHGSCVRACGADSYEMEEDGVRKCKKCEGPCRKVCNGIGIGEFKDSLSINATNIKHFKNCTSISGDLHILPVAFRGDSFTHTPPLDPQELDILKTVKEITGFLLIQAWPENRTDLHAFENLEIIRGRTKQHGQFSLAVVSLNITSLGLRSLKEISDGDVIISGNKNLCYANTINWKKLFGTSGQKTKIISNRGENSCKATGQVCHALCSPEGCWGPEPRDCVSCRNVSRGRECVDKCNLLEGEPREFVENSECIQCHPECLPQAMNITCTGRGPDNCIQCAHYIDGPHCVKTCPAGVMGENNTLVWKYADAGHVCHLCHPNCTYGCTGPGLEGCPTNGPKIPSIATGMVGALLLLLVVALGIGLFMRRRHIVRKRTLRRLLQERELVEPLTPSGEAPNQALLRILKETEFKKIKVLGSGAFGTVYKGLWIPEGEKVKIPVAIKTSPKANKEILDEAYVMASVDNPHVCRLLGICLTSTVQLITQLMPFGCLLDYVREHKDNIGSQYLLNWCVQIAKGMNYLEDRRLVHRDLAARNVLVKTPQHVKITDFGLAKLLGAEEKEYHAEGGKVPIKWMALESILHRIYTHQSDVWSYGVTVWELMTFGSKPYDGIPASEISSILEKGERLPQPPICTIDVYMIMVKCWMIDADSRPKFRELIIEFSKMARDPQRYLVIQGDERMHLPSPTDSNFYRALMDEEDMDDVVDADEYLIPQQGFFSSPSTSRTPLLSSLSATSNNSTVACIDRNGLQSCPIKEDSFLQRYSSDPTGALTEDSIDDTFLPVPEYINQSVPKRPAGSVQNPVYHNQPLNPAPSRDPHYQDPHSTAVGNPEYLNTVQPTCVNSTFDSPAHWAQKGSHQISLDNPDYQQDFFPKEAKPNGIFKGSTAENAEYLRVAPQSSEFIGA
In short: as §1

[4] = target: T4, EGFR L858R (Ba/F3 cells) (Homo sapiens, UniProt P00533, L858R); test: Inhibitor activity on EGFR phosphorylation (pEGFR AlphaLISA, 2 h), Ba/F3 EGFR L858R
T4 construct: expressed in transfected cells; host or cells: Ba/F3 (murine pro-B cells), retroviral transduction, puromycin selection, IL3-independent pool
In short: as §1

[5] = target: T5, EGFR exon 20 FQEA Ins A763_V764 (Ba/F3 cells) (Homo sapiens, UniProt P00533, INS763FQEA); test: Inhibitor activity on EGFR-dependent cell growth (CellTiter-Glo, 72 h), Ba/F3 EGFR exon 20 FQEA Ins; conditions: read-out: BaF3 FQEA IC50
T5 construct: expressed in transfected cells; host or cells: Ba/F3 (murine pro-B cells), retroviral transduction, puromycin selection, IL3-independent pool
In short: (§2)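 Compounds, serially diluted 3-fold over 10 points in DMSO and added at 120 nL per well, act on Ba/F3 EGFR-mutant cells for 72 h. Seeding is 800 (exon 19del, FQEA), 600 (L858R/C797S) or 400 (L858R) cells/well. CTG luminescence is fitted with a four-parameter logistic curve to give IC50.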

[6] = target: T6, EGFR WT (Ba/F3 cells) (Homo sapiens, UniProt P00533); test: Inhibitor activity on EGFR-dependent cell growth (CellTiter-Glo, 72 h), Ba/F3 EGFR WT; conditions: read-out: BaF3 WT IC50
T6 construct: expressed in transfected cells; host or cells: Ba/F3 (murine pro-B cells), retroviral transduction, puromycin selection, maintained with EGF
In short: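 This growth assay used Ba/F3 cells that depend on wild-type EGFR and are kept in EGF without IL3. Compounds were made up as 10 mM DMSO stocks and diluted 3-fold over 10 points. 120 nL went onto 600 cells/well. After 72 hours, 40 μL CellTiter-Glo was added and luminescence read on EnVision after 30 min.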

[7] = target: T7, EGFR L858R/C797S (Ba/F3 cells) (Homo sapiens, UniProt P00533, C797S/L858R); test: Inhibitor activity on EGFR phosphorylation (pEGFR AlphaLISA, 2 h), Ba/F3 EGFR L858R/C797S
T7 construct: expressed in transfected cells; host or cells: Ba/F3 (murine pro-B cells), retroviral transduction, puromycin selection, IL3-independent pool
T7 sequence (P00533 25-1210 C797S/L858R): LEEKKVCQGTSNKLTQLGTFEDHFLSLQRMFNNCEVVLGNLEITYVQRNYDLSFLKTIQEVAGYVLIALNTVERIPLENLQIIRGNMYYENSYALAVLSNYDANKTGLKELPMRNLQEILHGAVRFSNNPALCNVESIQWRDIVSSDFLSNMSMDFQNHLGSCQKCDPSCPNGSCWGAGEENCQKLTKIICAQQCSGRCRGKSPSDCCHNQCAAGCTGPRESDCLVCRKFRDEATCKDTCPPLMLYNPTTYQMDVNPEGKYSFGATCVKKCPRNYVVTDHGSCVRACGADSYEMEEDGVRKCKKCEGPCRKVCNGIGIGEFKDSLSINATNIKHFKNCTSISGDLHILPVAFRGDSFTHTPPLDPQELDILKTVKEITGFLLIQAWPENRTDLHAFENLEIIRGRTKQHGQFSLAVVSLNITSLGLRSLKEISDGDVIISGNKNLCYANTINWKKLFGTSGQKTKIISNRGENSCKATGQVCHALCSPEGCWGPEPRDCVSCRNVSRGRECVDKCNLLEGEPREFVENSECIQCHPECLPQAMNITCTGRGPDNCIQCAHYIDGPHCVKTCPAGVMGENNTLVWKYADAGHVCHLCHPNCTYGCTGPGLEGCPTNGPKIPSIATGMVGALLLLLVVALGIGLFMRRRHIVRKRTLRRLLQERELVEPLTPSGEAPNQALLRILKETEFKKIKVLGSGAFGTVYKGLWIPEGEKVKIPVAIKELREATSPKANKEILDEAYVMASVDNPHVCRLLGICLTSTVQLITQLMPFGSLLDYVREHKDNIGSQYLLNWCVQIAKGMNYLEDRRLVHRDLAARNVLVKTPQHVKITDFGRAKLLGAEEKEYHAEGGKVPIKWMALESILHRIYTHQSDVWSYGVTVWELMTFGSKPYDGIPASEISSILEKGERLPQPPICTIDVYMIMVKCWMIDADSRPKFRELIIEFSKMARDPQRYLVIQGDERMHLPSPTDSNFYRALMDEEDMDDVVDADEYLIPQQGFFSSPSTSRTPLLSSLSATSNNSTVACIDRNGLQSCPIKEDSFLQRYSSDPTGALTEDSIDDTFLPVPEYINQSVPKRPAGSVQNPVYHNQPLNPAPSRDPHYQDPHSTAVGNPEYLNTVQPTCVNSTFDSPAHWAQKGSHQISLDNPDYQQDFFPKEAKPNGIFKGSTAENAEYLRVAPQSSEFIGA
In short: as §1

[8] = target: T4, EGFR L858R (Ba/F3 cells); test: Inhibitor activity on EGFR-dependent cell growth (CellTiter-Glo, 72 h), Ba/F3 EGFR L858R; conditions: read-out: BaF3 L858R IC50
In short: as §2

[9] = target: T8, EGFR exon 20 NPG Ins D770_N771 (Ba/F3 cells) (Homo sapiens, UniProt P00533, INS770NPG); test: Inhibitor activity on EGFR-dependent cell growth (CellTiter-Glo, 72 h), Ba/F3 EGFR exon 20 NPG Ins; conditions: read-out: BaF3 NPG IC50
T8 construct: expressed in transfected cells; host or cells: Ba/F3 (murine pro-B cells), retroviral transduction, puromycin selection, IL3-independent pool
T8 sequence (P00533 with tags, fused parts or gaps INS770NPG): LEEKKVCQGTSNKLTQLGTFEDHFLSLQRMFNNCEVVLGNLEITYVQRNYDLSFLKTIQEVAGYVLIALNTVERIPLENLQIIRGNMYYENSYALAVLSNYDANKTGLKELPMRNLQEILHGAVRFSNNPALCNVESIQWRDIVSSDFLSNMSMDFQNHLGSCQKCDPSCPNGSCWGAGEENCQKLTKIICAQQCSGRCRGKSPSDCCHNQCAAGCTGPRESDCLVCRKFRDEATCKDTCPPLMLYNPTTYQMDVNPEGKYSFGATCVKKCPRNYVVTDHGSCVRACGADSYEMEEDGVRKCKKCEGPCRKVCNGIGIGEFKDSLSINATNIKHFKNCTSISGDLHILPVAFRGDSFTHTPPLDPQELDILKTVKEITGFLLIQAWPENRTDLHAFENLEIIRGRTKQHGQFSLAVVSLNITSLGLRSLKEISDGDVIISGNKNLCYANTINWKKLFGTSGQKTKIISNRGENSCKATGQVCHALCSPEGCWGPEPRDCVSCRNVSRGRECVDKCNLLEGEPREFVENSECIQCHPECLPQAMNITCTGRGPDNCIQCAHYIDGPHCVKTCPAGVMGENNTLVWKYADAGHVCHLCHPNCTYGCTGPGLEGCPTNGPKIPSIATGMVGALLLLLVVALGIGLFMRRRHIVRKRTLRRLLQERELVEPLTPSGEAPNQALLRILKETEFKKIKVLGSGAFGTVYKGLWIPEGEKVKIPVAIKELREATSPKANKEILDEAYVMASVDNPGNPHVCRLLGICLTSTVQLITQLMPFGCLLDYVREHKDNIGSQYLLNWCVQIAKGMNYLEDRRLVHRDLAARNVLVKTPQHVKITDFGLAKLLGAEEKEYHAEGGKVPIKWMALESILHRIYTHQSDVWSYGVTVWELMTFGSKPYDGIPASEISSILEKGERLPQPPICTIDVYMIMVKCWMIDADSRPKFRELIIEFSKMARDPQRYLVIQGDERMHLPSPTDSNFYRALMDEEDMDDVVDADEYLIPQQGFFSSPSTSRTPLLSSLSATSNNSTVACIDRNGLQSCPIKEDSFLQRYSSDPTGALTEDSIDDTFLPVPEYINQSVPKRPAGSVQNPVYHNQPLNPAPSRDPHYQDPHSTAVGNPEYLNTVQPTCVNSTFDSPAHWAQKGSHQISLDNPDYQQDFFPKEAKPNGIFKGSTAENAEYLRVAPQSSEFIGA
In short: (§3)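 IC50s derive from a sigmoidal dose–response fit of CellTiter-Glo signal. The signal was normalised between […]-treated cells and cell-free medium. Ba/F3 mutant-EGFR cells, seeded at 400–800/well depending on the line, had 72 h of exposure to a 10-point, 3-fold compound series.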

[10] = target: T7, EGFR L858R/C797S (Ba/F3 cells); test: Inhibitor activity on EGFR-dependent cell growth (CellTiter-Glo, 72 h), Ba/F3 EGFR L858R/C797S; conditions: read-out: BaF3 L858R/C797S IC50
In short: as §2

[11] = target: EGFR (CUTO14 cells) (Homo sapiens, UniProt P00533); test: Inhibitor activity on EGFR phosphorylation (pEGFR AlphaLISA, 2 h), CUTO14 cells
In short: as §1

[12] = target: T8, EGFR exon 20 NPG Ins D770_N771 (Ba/F3 cells); test: Inhibitor activity on EGFR phosphorylation (pEGFR AlphaLISA, 2 h), Ba/F3 EGFR exon 20 NPG Ins
In short: as §1

[13] = target: T3, EGFR exon 19del (Ba/F3 cells); test: Inhibitor activity on EGFR-dependent cell growth (CellTiter-Glo, 72 h), Ba/F3 EGFR exon 19del; conditions: Ba/F3 EGFR exon 19del cell growth, read-out: BaF3 Del19 IC50
In short: as §2

[14] = target: T2, EGFR exon 20 SVD Ins D770_N771 (Ba/F3 cells); test: Inhibitor activity on EGFR-dependent cell growth (CellTiter-Glo, 72 h), Ba/F3 EGFR exon 20 SVD Ins; conditions: read-out: BaF3 SVD IC50
In short: as §3

[15] = target: T1, EGFR exon 20 ASV Ins V769_D770 (Ba/F3 cells); test: Inhibitor activity on EGFR-dependent cell growth (CellTiter-Glo, 72 h), Ba/F3 EGFR exon 20 ASV Ins; conditions: read-out: BaF3 ASV IC50
In short: as §3

| SMILES | IC50 [1] | IC50 [2] | IC50 [3] | IC50 [4] | IC50 [5] | IC50 [6] | IC50 [7] | IC50 [8] | IC50 [9] | IC50 [10] | IC50 [11] | IC50 [12] | IC50 [13] | IC50 [14] | IC50 [15] |
| --- | --- | --- | --- | --- | --- | --- | --- | --- | --- | --- | --- | --- | --- | --- | --- |
| COc1c(Cl)cccc1Nc1c(-c2ccnc(Nc3ccn(CC(F)F)n3)n2)[nH]c2c1C(=O)NCC2 [compound 515, 3-[(3-chloro-2-methoxyphenyl)amino]-2-(2-{[1-(2,2-difluoroethyl)pyrazol-3-yl]amino}pyrimidin-4-yl)-1H,5H,6H,7H-pyrrolo[3,2-c]pyridin-4-one] | < 100 nM | < 100 nM | – | – | < 100 nM | < 100 nM | – | < 100 nM | < 100 nM | – | < 100 nM | < 100 nM | < 100 nM | < 100 nM | < 100 nM |
| COc1c(Cl)cccc1Nc1c(-c2ccnc(N)n2)[nH]c2c1C(=O)NC[C@H]2C[C@@H]1COCCO1 [Compound 567, (7R)-2-(2-aminopyrimidin-4-yl)-3-[(3-chloro-2-methoxyphenyl)amino]-7-[(2R)-1,4-dioxan-2-ylmethyl]-1H,5H,6H,7H-pyrrolo[3,2-c]pyridin-4-one] | < 100 nM | < 100 nM | – | – | < 100 nM | 100 to 1000 nM | – | < 100 nM | < 100 nM | – | < 100 nM | < 100 nM | < 100 nM | < 100 nM | < 100 nM |
| COc1c(Cl)cccc1Nc1c(-c2ccnc(Nc3cnn(CC(F)F)c3)n2)[nH]c2c1C(=O)NCC2 [compound 514, 3-[(3-chloro-2-methoxyphenyl)amino]-2-(2-{[1-(2,2-difluoroethyl)pyrazol-4-yl]amino}pyrimidin-4-yl)-1H,5H,6H,7H-pyrrolo[3,2-c]pyridin-4-one] | < 100 nM | < 100 nM | – | – | < 100 nM | < 100 nM | – | – | 100 to 1000 nM | – | 100 to 1000 nM | < 100 nM | – | < 100 nM | < 100 nM |

Other lines, results leading:

| IC50 [1] | IC50 [2] | IC50 [3] | IC50 [4] | IC50 [5] | IC50 [6] | IC50 [7] | IC50 [8] | IC50 [9] | IC50 [10] | IC50 [11] | IC50 [12] | IC50 [13] | IC50 [14] | IC50 [15] | SMILES |
| --- | --- | --- | --- | --- | --- | --- | --- | --- | --- | --- | --- | --- | --- | --- | --- |
| < 100 nM | < 100 nM | < 100 nM | < 100 nM | < 100 nM | < 100 nM | < 100 nM | < 100 nM | < 100 nM | < 100 nM | < 100 nM | < 100 nM | < 100 nM | – | – | COc1c(Cl)cccc1Nc1c(-c2ccncc2F)[nH]c2c1C(=O)NC[C@@H]2C[C@@H]1COCCO1 [Compound 482, (S)-7-(((R)-1,4-dioxan-2-yl)methyl)-3-((3-chloro-2-methoxyphenyl)amino)-2-(3-fluoropyridin-4-yl)-1,5,6,7-tetrahydro-4H-pyrrolo[3,2-c]pyridin-4-one] |
| < 100 nM | < 100 nM | – | – | < 100 nM | 100 to 1000 nM | – | – | < 100 nM | – | < 100 nM | < 100 nM | – | < 100 nM | < 100 nM | COc1c(Cl)cccc1Nc1c(-c2ccnc(Nc3cnnn3C)n2)[nH]c2c1C(=O)NCC2 [compound 512, 3-[(3-chloro-2-methoxyphenyl)amino]-2-{2-[(3-methyl-1,2,3-triazol-4-yl)amino]pyrimidin-4-yl}-1H,5H,6H,7H-pyrrolo[3,2-c]pyridin-4-one] |
| < 100 nM | < 100 nM | < 100 nM | < 100 nM | < 100 nM | 100 to 1000 nM | < 100 nM | < 100 nM | < 100 nM | < 100 nM | < 100 nM | < 100 nM | < 100 nM | – | – | COc1c(Cl)cccc1Nc1c(-c2ccnc3ccoc23)[nH]c2c1C(=O)NCC2 [compound 750, 3-[(3-chloro-2-methoxyphenyl)amino]-2-[furo[3,2-b]pyridin-7-yl]-1H,5H,6H,7H-pyrrolo[3,2-c]pyridin-4-one] |
| < 100 nM | < 100 nM | < 100 nM | < 100 nM | < 100 nM | 100 to 1000 nM | < 100 nM | < 100 nM | < 100 nM | < 100 nM | < 100 nM | < 100 nM | < 100 nM | – | – | COc1c(Cl)cccc1Nc1c(-c2ccncc2F)[nH]c2c1C(=O)NC[C@@H]2C[C@H]1COCCO1 [Compound 481, (7S)-3-[(3-chloro-2-methoxyphenyl)amino]-7-[(2S)-1,4-dioxan-2-ylmethyl]-2-(3-fluoropyridin-4-yl)-1H,5H,6H,7H-pyrrolo[3,2-c]pyridin-4-one] |
